Assay results reported in patent US20110201578A1, “COMPOSITION AND METHODS FOR THE TREATMENT OF PSEUDOFOLLICULITIS BARBAE AND SKIN IRRITATION” (priority 2010, published 2011).

Key:
[1] = pH of the acidic solution of the substance used by itself; type: physicochemical; conditions: acetylsalicyclic acid by itself, unbuffered
[2] = system: skin; assay: Application to skin, detrimental effects; type: in vivo; conditions: used by itself, applied to skin; hours and/or days following application
Description: The low pKa results in an acidic solution having a pH of about 1.9, which damages skin and results in skin peeling in the hours and/or days following application to skin.

## CC(=O)Oc1ccccc1C(=O)O [acetylsalicyclic acid]
[1]
  pH of resulting acidic solution: about 1.9
[2]
  effect on skin: acts as a skin peeler
